The values below come from patent publication US7419655B2, “Skin care products” (Kimberly-Clark Worldwide, Inc., priority 2002, dated 2008).

“Also recorded” adds a separate entry of the source.

The subject of assay [1] is human skin fibroblast cell line (normal human dermal fibroblasts, neonatal). Description: Fibroblast proliferative response, 96-well Cell Titer 96 Aqueous One assay (Example 2, FIG. 2, Table 2). It counts as cell-based. Conditions: for effect on cellular proliferation (in words): 5 and 10 ul, versus serum-free DMEM control, one-way ANOVA; for Mean (spectrophotometric absorbance at 490 nm) / Median (spectrophotometric absorbance at 490 nm): 28 hours incubation, n=5, Table 2. As for the experimental part:
A stock solution of CNA was prepared with chitosan (0.0297M) and equimolar amounts of ascorbic acid and niacinamide (0.01649M) in water. Test solutions of equimolar ascorbic acid and niacinamide (0.01649M) were prepared separately in water. All the compounds were tested at two doses, 5 and 10 ul with n=5. DMEM was used as a negative control (n=5). The proliferative response of CNA, ascorbic acid and niacinamide, on the human skin fibroblast cell line (Clonetics, Walkersville, Md., normal human dermal fibroblasts, neonatal) was measured in a 96-well assay system using serum-free DMEM (Dulbecco's Modified Eagle's Medium, Sigma Chemical Co.) as a control. Cells were seeded into 96 well plates at a concentration of 1×10^2 cells in 100 μl of DMEM containing 10% fetal bovine serum (FBS, Sigma Chemical Co., St. Louis, Mo.). Plates were incubated for 24 hours at 37° C. in a humidified 5% CO2 atmosphere. After incubation, the medium was aspirated and the wells were rinsed twice with 100 μl of serum-free DMEM. The final rinse was aspirated and 100 ul DMEM serum was added to each well before adding test compounds. All wells were incubated for 28 hours at 37° C. in a humidified, 5% CO2 atmosphere. After incubation, 20 μl of Cell Titer 96 Aqueous One Solution (Promega) was added to all wells. The plates were swirled gently and placed back in the incubator for 90 minutes and spectrophotometric absorbance was read at 490 nm. Statistical analysis of data was performed by using one-way ANOVA. P<0.05 is considered significant while P<0.001 is considered as very very significant.

For assay [2] the test system is unchanged. Description: Fibroblast proliferative response, 96-well Cell Titer 96 Aqueous One assay (Example 1, FIG. 1, Table 1). In kind it is cell-based. Conditions: for Mean (spectrophotometric absorbance at 490 nm) / Median (spectrophotometric absorbance at 490 nm): 28 hours incubation, n=5, Table 1; for cell growth / cell density (OD), FIG. 1: control OD about 0.6. As for the experimental part: A human skin fibroblast cell line was obtained from Clonetics (Walkersville, Md., normal human dermal fibroblasts, neonatal). Stock solutions of CNA were prepared with chitosan (0.0297M, degree of deacetylation 78.8%, Vanson Inc.) and equimolar amounts of ascorbic acid and niacinamide (0.01649M, Sigma Chemical Co.) in water. Test solutions of chitosan (0.0297M) and niacinamide ascorbate (0.01649M) were separately prepared. All the compounds were tested at two doses, 5 and 10 ul with n=5. DMEM was used as a negative control (n=5). The proliferative response of CNA, chitosan and NA, on the human skin fibroblast cell was measured in a 96-well assay system using serum-free DMEM (Dulbecco's Modified Eagle's Medium, Sigma Chemical Co.) as a control. Cells were seeded into 96 well plates at a concentration of 1×10^3 cells in 100 μl of DMEM containing 10% fetal bovine serum (FBS, Sigma Chemical Co., St. Louis, Mo.). Plates were incubated for 24 hours at 37° C. in a humidified 5% CO2 atmosphere. After incubation, the medium was aspirated and the wells were rinsed twice with 100 μl of serum-free DMEM. The final rinse was aspirated and 100 ul DMEM serum was added to each well before adding test compounds. All wells were incubated for 28 hours at 37° C. in a humidified, 5% CO2 atmosphere. After incubation, 20 μl of Cell Titer 96 Aqueous One Solution (Promega) was added to all wells. The plates were swirled gently and placed back in the incubator for 90 minutes and spectrophotometric absorbance was read at 490 nm. Statistical analysis of data was performed by using one-way ANOVA. P<0.05 is considered significant while P<0.001 is considered as very very significant.

The mark [3] stands for this setting: group suffix 1 (doses were 5 and 10 ul).
Setting [4] is: group suffix 2 (doses were 5 and 10 ul).

As for `O=C1O[C@H]([C@@H](O)CO)C(O)=C1O` [Ascorbic acid, ascorbic acid], the “effect on cellular proliferation (in words)” value in assay [1] is reported as “some cell proliferating activity”. In assay [1] (setting [3]), the “Mean (spectrophotometric absorbance at 490 nm)” value (“Mean” below) worked out at 0.4002 and the “Median (spectrophotometric absorbance at 490 nm)” value (from here on “Median”) worked out at 0.3990. In addition, in assay [1] (setting [4]), the “Mean” value is 0.4598 and the “Median” value is listed as 0.4510.
For the compound `NC(=O)c1cccnc1.O=C1O[C@H]([C@@H](O)CO)C(O)=C1O` [NA, niacinamide ascorbate], the “effect on fibroblast growth / proliferation (in words)” value in assay [2] (5 and 10 ul, versus serum-free DMEM control, one-way ANOVA) is listed as “appeared to inhibit cellular growth in a dose dependent manner; also recorded: appears depress fibroblast cell growth”. Besides, the “Mean” value in assay [2] (5 ul dose) was 0.5650; in assay [2] (10 ul dose), 0.4826. In addition, the “Median” value came to 0.5630 in assay [2] (5 ul dose) and 0.4870 in assay [2] (10 ul dose). Also, the “cell growth / cell density (OD), FIG. 1” value in assay [2] (5 μl) was “about 0.58”; in assay [2] (10 μl), “about 0.50”.
On to `NC(=O)c1cccnc1` [Niacinamide, niacinamide], for which the “effect on cellular proliferation (in words)” value in assay [1] is reported as “did not show any statistical difference”. Also, in assay [1] (setting [3]), the “Mean” value turned out to be 0.3108 and the “Median” value amounted to 0.3140. In addition, in assay [1] (setting [4]), the “Mean” value was 0.3048 and the “Median” value is 0.3070.
